# Measurements published in patent US20230321017A1, “ACIDIC CANNABINOIDS AND USES THEREOF FOR ENHANCING FEMALE SEXUAL FUNCTION OR TREATING FEMALE SEXUAL DISORDERS” (Vella Bioscience, Inc., priority 2022, published 2023).
# “Also recorded” adds a separate entry of the source.
# Tests used:
# [1] = tested on: rat distal vaginal smooth muscle tissue; experiment: In vitro isometric tension, isolated organ bath: relaxation of EFS-induced contractions of distal vagina strips; conditions: for relaxation of EFS-induced contractions of distal vagina strips compared to the vehicle control: 10 min incubation, two-way ANOVA; for pharmacological relaxant effect on rat distal vaginal smooth muscle tissue (dose dependence): figure legend, 1, 10 and 100 µg/mL
# Text: (§1) The following in vitro methodology was utilized to examine the concentration-dependent response of rat vaginal tissue, both proximal and distal, to CBDA and CBD following contraction by electrical field stimulation (similar to efferent neurostimulation in vivo).
# (§2) Intact female Sprague-Dawley rats were anesthetized and vagina harvested. A maximum of eight vaginal strips (4 proximal and 4 distal) were obtained from each rat in circular direction and mounted in organ chambers filled with an oxygenated physiological salt solution.
# (§3) Strips were excised from the tissue samples and connected to force transducers for isometric tension recording. Organ baths were filled with Krebs buffer maintained at 37° C. and bubbled with 95% O2 and 5% CO2, pH 7.4.
# (§4) After the equilibration period, the strips were primed first by the addition to the organ bath of KCI (100 mM, 10 min) and then after a washing step, by stimulation to EFS (electrical parameters: 20 Hz, 3 ms, 10 s, 300 mA). After this priming period, the strips were washed and a baseline frequency response curve (FRC) was obtained (3 ms, 10 s, 300 mA, frequency at 1, 2, 4, 8, 16, 32, and 48 Hz, every 2 minutes). Then, 6 strips (3 proximal and 3 distal) were incubated with vehicle for 10 minutes before applying a second FRC. The remaining 2 strips (one proximal and one distal) served as a time-controls. After a washing step, a third FRC was applied after the incubation of the test compound at 1 µg/mL for a period of 10 min. This was repeated with the concentration of 10 µg/mL, and 100 µg/mL.
# (§5) The experiments were performed following the general procedures described in Examples 1 and 2. The data are mean ± SEM of N experiments using vaginal strips from N different rats. p = ns, * p < 0.05, ** p < 0.01, *** p < 0.001, **** p < 0.0001, two-way ANOVA.
# (§6) The experiments were performed following the general procedures described in Examples 1 and 2. The data are mean ± SEM of N experiments using vaginal strips from N different rats; p = ns, * p < 0.05, ** p < 0.01, *** p < 0.001, **** p < 0.0001, two-way ANOVA.
# (§7) The comparison plots of the pharmacological relaxant effects of CBD and CBDA on rat vaginal smooth muscle tissue are shown in FIGS. 3, 4, and 5. Also, shown are the results of the evaluation of the differences in effects exerted by CBD and CBDA for statistical significance. The data are mean ± SEM of N experiments using vaginal strips from N different rats; p = ns, * p < 0.05, ** p < 0.01, *** p < 0.001, **** p < 0.0001, two-way ANOVA.
# cyclooxygenase isoforms = conditions: background statement, selectivity controversial; cited from earlier work
# [2] = background statement; cited from earlier work
# [3] = tested on: rat proximal vaginal smooth muscle tissue; experiment: In vitro isometric tension, isolated organ bath: relaxation of EFS-induced contractions of proximal vagina strips; conditions: for pharmacological relaxant effect on rat proximal vaginal smooth muscle tissue (dose dependence): figure legend, 1, 10 and 100 µg/mL; for relaxation of EFS-induced contractions of proximal vagina strips compared to the vehicle control: 10 min incubation, two-way ANOVA
# Text: as §1, §2, §3, §4, §5, §6, §7
# [4] = pKa estimate by comparison to olivetolic acid; assay type: physicochemical; conditions: estimated by comparison to olivetolic acid; not reported
# [5] = tested on: rat vaginal smooth muscle; experiment: Relaxation of precontracted rat vaginal smooth muscle (summary statement); conditions: dose-dependent manner; tissue region not specified
# Text: as §1, §2, §3
# as §4, with “After a washing step, a third FRC was applied after the incubation of the test compound at 1 µg/mL for a period of 10 min. This was repeated with the concentration of 10 µg/mL, and 100 µg/mL.” left out
# vaginal smooth muscle = conditions: earlier study WO2021091908A1; cited from earlier work
SMILES,"pharmacological relaxant effect of CBDA compared with CBD, distal vaginal smooth muscle ([1]; 1 µg/mL, FIG. 3B)",relaxation of EFS-induced contractions of distal vagina strips compared to the vehicle control ([1]; 10 µg/mL),"pharmacological relaxant effect of CBDA compared with CBD, distal vaginal smooth muscle ([1]; 10 µg/mL, FIG. 4B)",relaxation of EFS-induced contractions of distal vagina strips compared to the vehicle control ([1]; 100 µg/mL),"pharmacological relaxant effect of CBDA compared with CBD, distal vaginal smooth muscle ([1]; 100 µg/mL, FIG. 5B)",pharmacological relaxant effect on rat distal vaginal smooth muscle tissue (dose dependence) [1],activity against cyclooxygenase (COX-1/COX-2) (cyclooxygenase isoforms),permeability relative to CBD [2],"pharmacological relaxant effect of CBDA compared with CBD, proximal vaginal smooth muscle ([3]; 1 µg/mL, FIG. 3A)","pharmacological relaxant effect of CBDA compared with CBD, proximal vaginal smooth muscle ([3]; 10 µg/mL, FIG. 4A)","pharmacological relaxant effect of CBDA compared with CBD, proximal vaginal smooth muscle ([3]; 100 µg/mL, FIG. 5A)",pharmacological relaxant effect on rat proximal vaginal smooth muscle tissue (dose dependence) [3],pKa [4],"effectiveness at relaxing a precontracted rat vaginal smooth muscle, relative to CBD [5]",relaxation of EFS-induced contractions of distal vagina strips compared to the vehicle control ([1]; 1 µg/mL),relaxation of EFS-induced contractions of proximal vagina strips compared to the vehicle control ([3]; 10 µg/mL),relaxation of EFS-induced contractions of proximal vagina strips compared to the vehicle control ([3]; 100 µg/mL),relaxation of vaginal smooth muscle (vaginal smooth muscle)
"C=C(C)[C@@H]1CCC(C)=C[C@H]1c1c(O)cc(CCCCC)c(C(=O)O)c1O [CBDA, (1′R,2′R)-2,6-dihydroxy-5′-methyl-4-pentyl-2′-(prop-1-en-2-yl)-1′,2′,3′,4′-tetrahydro[1,1′-biphenyl]-3-carboxylic acid]",no statistically significant difference,statistically-significant relaxation,stronger,statistically-significant relaxation,stronger,"statistically significant, dose-dependent pharmacological relaxant effect",inhibitor of cyclooxygenase isoforms,substantially higher,stronger,stronger,stronger,"statistically significant, dose-dependent pharmacological relaxant effect",~3.4,significantly more effective than CBD,–,–,–,–
"C=C(C)[C@@H]1CCC(C)=C[C@H]1c1c(O)cc(CCCCC)cc1O [CBD, (-)-trans-cannabidiol, reference compound]",–,statistically-significant relaxation; also recorded: statistically significant relaxation,–,statistically-significant relaxation; also recorded: statistically significant relaxation,–,"statistically significant, dose-dependent pharmacological relaxant effect",much weaker or no activity,–,–,–,–,"statistically significant, dose-dependent pharmacological relaxant effect",–,–,statistically-significant relaxation; also recorded: statistically significant relaxation,statistically-significant relaxation,statistically-significant relaxation,statistically-significant relaxation
